In the NIST ThermoML archive (doi:10.1021/je100851w):
± gives the expanded uncertainty stated by the source.

Experiment: xn = mol fraction of the nth substance listed
Settings: Vibrating tube method

S [hydrogen sulfide] + CCC
Settings	mass density [kg/m3]
333.22 K, 2048 kPa, Gas, x1 = 0.2227	40 ± 0.1
333.22 K, 2176 kPa, Gas, x1 = 0.2227	43.6 ± 0.1
333.22 K, 2300 kPa, Gas, x1 = 0.2227	47.2 ± 0.1
333.22 K, 2398 kPa, Gas, x1 = 0.2227	50.2 ± 0.1
333.22 K, 2551 kPa, Gas, x1 = 0.2227	55.6 ± 0.1
333.22 K, 2630 kPa, Gas, x1 = 0.2227	59.1 ± 0.1
333.22 K, 2722 kPa, Gas, x1 = 0.2227	62.4 ± 0.1
333.22 K, 2778 kPa, Gas, x1 = 0.2227	65.4 ± 0.1
333.22 K, 3571 kPa, Liquid, x1 = 0.2227	438.6 ± 0.3
333.22 K, 3861 kPa, Liquid, x1 = 0.2227	441.9 ± 0.4
333.22 K, 4197 kPa, Liquid, x1 = 0.2227	445.2 ± 0.4
333.22 K, 4915 kPa, Liquid, x1 = 0.2227	450.2 ± 0.4
333.22 K, 5323 kPa, Liquid, x1 = 0.2227	453.4 ± 0.4
333.22 K, 5731 kPa, Liquid, x1 = 0.2227	456.4 ± 0.4
333.22 K, 6177 kPa, Liquid, x1 = 0.2227	459.5 ± 0.4
333.22 K, 6686 kPa, Liquid, x1 = 0.2227	462.8 ± 0.4
333.22 K, 7239 kPa, Liquid, x1 = 0.2227	466.1 ± 0.4
333.22 K, 7781 kPa, Liquid, x1 = 0.2227	469.2 ± 0.5
333.22 K, 8351 kPa, Liquid, x1 = 0.2227	472.3 ± 0.5
333.22 K, 8992 kPa, Liquid, x1 = 0.2227	475.5 ± 0.5
333.22 K, 9907 kPa, Liquid, x1 = 0.2227	479.8 ± 0.5
333.22 K, 10643 kPa, Liquid, x1 = 0.2227	482.8 ± 0.5
333.22 K, 11360 kPa, Liquid, x1 = 0.2227	485.8 ± 0.6
333.22 K, 12135 kPa, Liquid, x1 = 0.2227	488.8 ± 0.6
333.22 K, 12959 kPa, Liquid, x1 = 0.2227	491.9 ± 0.6
333.22 K, 13811 kPa, Liquid, x1 = 0.2227	495 ± 0.6
333.22 K, 14817 kPa, Liquid, x1 = 0.2227	498.4 ± 0.7
333.22 K, 15868 kPa, Liquid, x1 = 0.2227	501.8 ± 0.7
333.22 K, 16856 kPa, Liquid, x1 = 0.2227	504.8 ± 0.7
333.22 K, 17893 kPa, Liquid, x1 = 0.2227	507.8 ± 0.7
333.22 K, 18975 kPa, Liquid, x1 = 0.2227	510.8 ± 0.8
333.22 K, 20100 kPa, Liquid, x1 = 0.2227	513.8 ± 0.8
333.22 K, 21435 kPa, Liquid, x1 = 0.2227	517.2 ± 0.8
333.22 K, 22830 kPa, Liquid, x1 = 0.2227	520.5 ± 0.8
333.22 K, 24120 kPa, Liquid, x1 = 0.2227	523.5 ± 0.9
333.22 K, 25466 kPa, Liquid, x1 = 0.2227	526.5 ± 0.9
333.22 K, 26959 kPa, Liquid, x1 = 0.2227	529.7 ± 0.9
333.22 K, 28465 kPa, Liquid, x1 = 0.2227	532.7 ± 0.9
333.22 K, 30160 kPa, Liquid, x1 = 0.2227	536 ± 1
333.22 K, 31961 kPa, Liquid, x1 = 0.2227	539.4 ± 1
333.22 K, 33791 kPa, Liquid, x1 = 0.2227	542.6 ± 1
333.22 K, 35752 kPa, Liquid, x1 = 0.2227	546 ± 1.1
333.22 K, 37781 kPa, Liquid, x1 = 0.2227	549.3 ± 1.1
333.22 K, 39778 kPa, Liquid, x1 = 0.2227	552.5 ± 1.2
363.24 K, 9 kPa, Fluid (supercritical or subcritical phases), x1 = 0.2691	0.1
363.24 K, 313 kPa, Fluid (supercritical or subcritical phases), x1 = 0.2691	4.4 ± 0.1
363.24 K, 596 kPa, Fluid (supercritical or subcritical phases), x1 = 0.2691	8.6 ± 0.1
363.24 K, 842 kPa, Fluid (supercritical or subcritical phases), x1 = 0.2691	12.3 ± 0.1
363.24 K, 1110 kPa, Fluid (supercritical or subcritical phases), x1 = 0.2691	16.6 ± 0.1
363.24 K, 1358 kPa, Fluid (supercritical or subcritical phases), x1 = 0.2691	20.8 ± 0.1
363.24 K, 1602 kPa, Fluid (supercritical or subcritical phases), x1 = 0.2691	25 ± 0.1
363.24 K, 1810 kPa, Fluid (supercritical or subcritical phases), x1 = 0.2691	28.7 ± 0.1
363.24 K, 2014 kPa, Fluid (supercritical or subcritical phases), x1 = 0.2691	32.7 ± 0.1
363.24 K, 2204 kPa, Fluid (supercritical or subcritical phases), x1 = 0.2691	36.6 ± 0.1
363.24 K, 2401 kPa, Fluid (supercritical or subcritical phases), x1 = 0.2691	40.6 ± 0.1
363.24 K, 2576 kPa, Fluid (supercritical or subcritical phases), x1 = 0.2691	44.4 ± 0.1
363.24 K, 2742 kPa, Fluid (supercritical or subcritical phases), x1 = 0.2691	48.3 ± 0.1
363.24 K, 2905 kPa, Fluid (supercritical or subcritical phases), x1 = 0.2691	52.3 ± 0.1
363.24 K, 3058 kPa, Fluid (supercritical or subcritical phases), x1 = 0.2691	56.2 ± 0.1
363.24 K, 3211 kPa, Fluid (supercritical or subcritical phases), x1 = 0.2691	60.3 ± 0.1
363.24 K, 3358 kPa, Fluid (supercritical or subcritical phases), x1 = 0.2691	64.4 ± 0.1
363.24 K, 3493 kPa, Fluid (supercritical or subcritical phases), x1 = 0.2691	68.4 ± 0.1
363.24 K, 3613 kPa, Fluid (supercritical or subcritical phases), x1 = 0.2691	72.3 ± 0.1
363.24 K, 3752 kPa, Fluid (supercritical or subcritical phases), x1 = 0.2691	76.3 ± 0.1
363.24 K, 3878 kPa, Fluid (supercritical or subcritical phases), x1 = 0.2691	80.7 ± 0.2
363.24 K, 3964 kPa, Fluid (supercritical or subcritical phases), x1 = 0.2691	84.5 ± 0.2
363.24 K, 4056 kPa, Fluid (supercritical or subcritical phases), x1 = 0.2691	88.4 ± 0.2
363.24 K, 4156 kPa, Fluid (supercritical or subcritical phases), x1 = 0.2691	92.4 ± 0.2
363.24 K, 4237 kPa, Fluid (supercritical or subcritical phases), x1 = 0.2691	96.3 ± 0.2
363.24 K, 4354 kPa, Fluid (supercritical or subcritical phases), x1 = 0.2691	102.5 ± 0.2
363.24 K, 4468 kPa, Fluid (supercritical or subcritical phases), x1 = 0.2691	108.5 ± 0.3
363.24 K, 4619 kPa, Fluid (supercritical or subcritical phases), x1 = 0.2691	120.8 ± 0.3
363.24 K, 4747 kPa, Fluid (supercritical or subcritical phases), x1 = 0.2691	132.2 ± 0.4
363.24 K, 4838 kPa, Fluid (supercritical or subcritical phases), x1 = 0.2691	142.5 ± 1.1
363.24 K, 4877 kPa, Fluid (supercritical or subcritical phases), x1 = 0.2691	152.9 ± 1.2
363.24 K, 4905 kPa, Fluid (supercritical or subcritical phases), x1 = 0.2691	166.8 ± 1.4
363.24 K, 4932 kPa, Fluid (supercritical or subcritical phases), x1 = 0.2691	180.1 ± 1.9
363.24 K, 4954 kPa, Fluid (supercritical or subcritical phases), x1 = 0.2691	190.9 ± 1.9
363.24 K, 4982 kPa, Fluid (supercritical or subcritical phases), x1 = 0.2691	203.7 ± 1.8
363.24 K, 5002 kPa, Fluid (supercritical or subcritical phases), x1 = 0.2691	216 ± 1.8
363.24 K, 5021 kPa, Fluid (supercritical or subcritical phases), x1 = 0.2691	229.7 ± 1.7
363.24 K, 5043 kPa, Fluid (supercritical or subcritical phases), x1 = 0.2691	241.1 ± 1.7
363.24 K, 5101 kPa, Fluid (supercritical or subcritical phases), x1 = 0.2691	254 ± 1.4
363.24 K, 5146 kPa, Fluid (supercritical or subcritical phases), x1 = 0.2691	266.2 ± 1.1
363.24 K, 5182 kPa, Fluid (supercritical or subcritical phases), x1 = 0.2691	277.5 ± 1.1
363.24 K, 5220 kPa, Fluid (supercritical or subcritical phases), x1 = 0.2691	288.7 ± 1.1
363.24 K, 5267 kPa, Fluid (supercritical or subcritical phases), x1 = 0.2691	299.6 ± 1
363.24 K, 5324 kPa, Fluid (supercritical or subcritical phases), x1 = 0.2691	307.2 ± 0.8
363.24 K, 5360 kPa, Fluid (supercritical or subcritical phases), x1 = 0.2691	313.4 ± 0.6
363.24 K, 5410 kPa, Fluid (supercritical or subcritical phases), x1 = 0.2691	319.7 ± 0.6
363.24 K, 5474 kPa, Fluid (supercritical or subcritical phases), x1 = 0.2691	326 ± 0.5
363.24 K, 5549 kPa, Fluid (supercritical or subcritical phases), x1 = 0.2691	332.3 ± 0.5
363.24 K, 5632 kPa, Fluid (supercritical or subcritical phases), x1 = 0.2691	339.4 ± 0.4
363.24 K, 5762 kPa, Fluid (supercritical or subcritical phases), x1 = 0.2691	346.5 ± 0.4
363.24 K, 5914 kPa, Fluid (supercritical or subcritical phases), x1 = 0.2691	353.3 ± 0.4
363.24 K, 6056 kPa, Fluid (supercritical or subcritical phases), x1 = 0.2691	359.2 ± 0.4
363.24 K, 6228 kPa, Fluid (supercritical or subcritical phases), x1 = 0.2691	365.4 ± 0.4
363.24 K, 6441 kPa, Fluid (supercritical or subcritical phases), x1 = 0.2691	371.6 ± 0.4
363.24 K, 6679 kPa, Fluid (supercritical or subcritical phases), x1 = 0.2691	377.7 ± 0.4
363.24 K, 6961 kPa, Fluid (supercritical or subcritical phases), x1 = 0.2691	383.9 ± 0.4
363.24 K, 7276 kPa, Fluid (supercritical or subcritical phases), x1 = 0.2691	390 ± 0.4
363.24 K, 7639 kPa, Fluid (supercritical or subcritical phases), x1 = 0.2691	396.1 ± 0.4
363.24 K, 8055 kPa, Fluid (supercritical or subcritical phases), x1 = 0.2691	402.1 ± 0.4
363.24 K, 8511 kPa, Fluid (supercritical or subcritical phases), x1 = 0.2691	408 ± 0.4
363.24 K, 9002 kPa, Fluid (supercritical or subcritical phases), x1 = 0.2691	413.7 ± 0.5
363.24 K, 9557 kPa, Fluid (supercritical or subcritical phases), x1 = 0.2691	419.4 ± 0.5
363.24 K, 10183 kPa, Fluid (supercritical or subcritical phases), x1 = 0.2691	425.2 ± 0.5
363.24 K, 10878 kPa, Fluid (supercritical or subcritical phases), x1 = 0.2691	431.1 ± 0.5
363.24 K, 11648 kPa, Fluid (supercritical or subcritical phases), x1 = 0.2691	436.9 ± 0.5
363.24 K, 12515 kPa, Fluid (supercritical or subcritical phases), x1 = 0.2691	442.7 ± 0.6
363.24 K, 13444 kPa, Fluid (supercritical or subcritical phases), x1 = 0.2691	448.5 ± 0.6
363.24 K, 14452 kPa, Fluid (supercritical or subcritical phases), x1 = 0.2691	454.1 ± 0.6
363.24 K, 15616 kPa, Fluid (supercritical or subcritical phases), x1 = 0.2691	460.1 ± 0.6
363.24 K, 16807 kPa, Fluid (supercritical or subcritical phases), x1 = 0.2691	465.7 ± 0.7
363.24 K, 18163 kPa, Fluid (supercritical or subcritical phases), x1 = 0.2691	471.5 ± 0.7
363.24 K, 19596 kPa, Fluid (supercritical or subcritical phases), x1 = 0.2691	477.1 ± 0.8
363.24 K, 20717 kPa, Fluid (supercritical or subcritical phases), x1 = 0.2691	481.2 ± 0.8
363.24 K, 21739 kPa, Fluid (supercritical or subcritical phases), x1 = 0.2691	484.7 ± 0.8
363.24 K, 22936 kPa, Fluid (supercritical or subcritical phases), x1 = 0.2691	488.7 ± 0.9
363.24 K, 24149 kPa, Fluid (supercritical or subcritical phases), x1 = 0.2691	492.4 ± 0.9
363.24 K, 25434 kPa, Fluid (supercritical or subcritical phases), x1 = 0.2691	496.2 ± 0.9
363.24 K, 26773 kPa, Fluid (supercritical or subcritical phases), x1 = 0.2691	500 ± 1
363.24 K, 28220 kPa, Fluid (supercritical or subcritical phases), x1 = 0.2691	503.8 ± 1
363.24 K, 29831 kPa, Fluid (supercritical or subcritical phases), x1 = 0.2691	507.9 ± 1
363.24 K, 31352 kPa, Fluid (supercritical or subcritical phases), x1 = 0.2691	511.5 ± 1.1
363.24 K, 32889 kPa, Fluid (supercritical or subcritical phases), x1 = 0.2691	515 ± 1.1
363.24 K, 34710 kPa, Fluid (supercritical or subcritical phases), x1 = 0.2691	519 ± 1.1
